Key:
[1] = cited from earlier work
[2] = Solubility of CIPC (maximum concentration obtained in solvents); format: physicochemical; settings: in terpenes and/or terpene oils, clear solutions, at room temperature or even as low as 0° C.
Method: Moreover, CIPC is sparingly soluble in conventional solvents, and maximum CIPC concentrations of the order of 30% (weight/volume) are generally obtained. At best, concentrations of the order of about 54% at 180° C. have been obtained. This low solubility therefore implies the use of large quantities of solvent and/or of formulation in order to obtain the required quantities of active formula. Now, it is sought in general to limit the use of these solvents because of their own toxicity and/or of the danger involved in using them, in particular because of their low boiling points which cause high risks of inflammability.
It has now been discovered, and that is one of the subjects of the present invention, that terpenes and/or terpene oils have a high CIPC-dissolving power. In particular, the use of such terpenes and/or terpene oils makes it possible to obtain clear CIPC solutions and to reach CIPC concentrations greater than 50% by weight of CIPC relative to the total volume of the solution, at room temperature, or even temperatures as low as 0° C. Consequently, the formulations of the present invention make it possible to limit the quantity of formulated product to be used.

CC(C)OC(=O)Nc1cccc(Cl)c1 [CIPC, isopropyl (3-chlorophenyl)carbamate]
CIPC concentration obtained at best ([1]; conventional solvents, at 180° C.): about 54%
maximum CIPC concentration ([1]; in conventional solvents): ~30 % (weight/volume)
CIPC concentration reached [2]: greater than 50 % by weight of CIPC relative to the total volume of the solution
